Test system: SEM cells
Assay: cell viability relative to DMSO control; higher = less cytotoxic
Conditions: 48 h
Outline: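 Viability is a per-plate percentage relative to DMSO wells, with cell-free wells as background. CellTiter-Glo One luminescence was read after 48 h at 37°C on 1536-well plates (5 μl) of NOMO1 or SEM (500 cells/well) or P12-Ichikawa (1000 cells/well) leukemia cells. The cells had been adapted for at least four passages in each medium and pin-dosed with library compounds in DMSO from 47 μM to 0.79 nM in 11 threefold steps.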

[1] = HPLM + 10% dialyzed FBS, 0.000781 µM
[2] = HPLM + 10% dialyzed FBS, 0.00234 µM
[3] = HPLM + 10% dialyzed FBS, 0.00702 µM
[4] = HPLM + 10% dialyzed FBS, 0.0211 µM
[5] = HPLM + 10% dialyzed FBS, 0.0632 µM
[6] = HPLM + 10% dialyzed FBS, 0.19 µM
[7] = HPLM + 10% dialyzed FBS, 0.569 µM
[8] = HPLM + 10% dialyzed FBS, 1.71 µM
[9] = HPLM + 10% dialyzed FBS, 5.12 µM
[10] = HPLM + 10% dialyzed FBS, 15.4 µM
[11] = HPLM + 10% dialyzed FBS, 46.1 µM
[12] = RPMI 5 mM glucose + 10% FBS, 0.000781 µM
[13] = RPMI 5 mM glucose + 10% FBS, 0.00234 µM
[14] = RPMI 5 mM glucose + 10% FBS, 0.00702 µM
[15] = RPMI 5 mM glucose + 10% FBS, 0.0211 µM
[16] = RPMI 5 mM glucose + 10% FBS, 0.0632 µM
[17] = RPMI 5 mM glucose + 10% FBS, 0.19 µM
[18] = RPMI 5 mM glucose + 10% FBS, 0.569 µM
[19] = RPMI 5 mM glucose + 10% FBS, 1.71 µM
[20] = RPMI 5 mM glucose + 10% FBS, 5.12 µM
[21] = RPMI 5 mM glucose + 10% FBS, 15.4 µM
[22] = RPMI 5 mM glucose + 10% FBS, 46.1 µM
[23] = RPMI 5 mM glucose + 10% dialyzed FBS, 0.000781 µM
[24] = RPMI 5 mM glucose + 10% dialyzed FBS, 0.00234 µM
[25] = RPMI 5 mM glucose + 10% dialyzed FBS, 0.00702 µM
[26] = RPMI 5 mM glucose + 10% dialyzed FBS, 0.0211 µM
[27] = RPMI 5 mM glucose + 10% dialyzed FBS, 0.0632 µM
[28] = RPMI 5 mM glucose + 10% dialyzed FBS, 0.19 µM
[29] = RPMI 5 mM glucose + 10% dialyzed FBS, 0.569 µM
[30] = RPMI 5 mM glucose + 10% dialyzed FBS, 1.71 µM
[31] = RPMI 5 mM glucose + 10% dialyzed FBS, 5.12 µM
[32] = RPMI 5 mM glucose + 10% dialyzed FBS, 15.4 µM
[33] = RPMI 5 mM glucose + 10% dialyzed FBS, 46.1 µM

NC1CCC(Nc2nc(Nc3ccc(C(=O)N4CCCCC4)cc3)c3ncn(-c4cccc(F)c4)c3n2)CC1 (stereo unspecified)
cell viability [1]: 91.7% | cell viability [2]: 94.8% | cell viability [3]: 95.2% | cell viability [4]: 96.6% | cell viability [5]: 102% | cell viability [6]: 117% | cell viability [7]: 55% | cell viability [8]: 59.1% | cell viability [9]: 102% | cell viability [10]: 128% | cell viability [11]: 125% | cell viability [12]: 110% | cell viability [13]: 102% | cell viability [14]: 104% | cell viability [15]: 112% | cell viability [16]: 103% | cell viability [17]: 124% | cell viability [18]: 75.9% | cell viability [19]: 62.9% | cell viability [20]: 100% | cell viability [21]: 110% | cell viability [22]: 90.1% | cell viability [23]: 99.6% | cell viability [24]: 99% | cell viability [25]: 100% | cell viability [26]: 99.3% | cell viability [27]: 106% | cell viability [28]: 113% | cell viability [29]: 64.6% | cell viability [30]: 41.9% | cell viability [31]: 98.6% | cell viability [32]: 98.6% | cell viability [33]: 88.9%

Nc1nc(Nc2ccc([S+](N)(=O)[O-])cc2)nn1C(=O)c1c(F)cccc1F
cell viability [1]: 104% | cell viability [2]: 111% | cell viability [3]: 97.8% | cell viability [4]: 133% | cell viability [5]: 104% | cell viability [6]: 113% | cell viability [7]: 123% | cell viability [8]: 116% | cell viability [9]: 64.1% | cell viability [10]: 32.1% | cell viability [11]: 5.68% | cell viability [12]: 100% | cell viability [13]: 107% | cell viability [14]: 113% | cell viability [15]: 110% | cell viability [16]: 114% | cell viability [17]: 101% | cell viability [18]: 100% | cell viability [19]: 109% | cell viability [20]: 76.5% | cell viability [21]: 34.7% | cell viability [22]: 6.53% | cell viability [23]: 88.9% | cell viability [24]: 108% | cell viability [25]: 114% | cell viability [26]: 115% | cell viability [27]: 110% | cell viability [28]: 122% | cell viability [29]: 111% | cell viability [30]: 123% | cell viability [31]: 64.8% | cell viability [32]: 34.5% | cell viability [33]: 4.33%

— the supplement of paper PMC11451515
